Here are results for 1 compound from ChEMBL document CHEMBL5338815 (J Med Chem, 2023).

The test system of data set [1] is PANC-1. Briefly: In vivo antitumor activity against human PANC-1 cells xenografted in Balb/c mouse model assessed as tumor growth inhibition at 2 mg/kg, ip treated for 22 days relative to control. The class given is functional. The following applies: PANC-1, 528 h, time 22 day, read-out: TGI. Background: A xenograft is tissue or cells of one species grown in another, often human tumour cells in immunodeficient mice.

Data set [2] relates to MDA-MB-231. Briefly: Reduction in H3K9me2 level in human MDA-MB-231 cells at 10 uM incubated for 48 hrs followed replaced with fresh medium measured after 48 hrs by Western blot analysis. The class given is functional, cell-based.
Data set [3] can be described thus: AUC (0 to infinity) in ICR mouse at 2 mg/kg, ip measured upto 24 hrs by LC-MS/MS analysis. The data set is classed as ADME, organism-based. More on the design: dose 2 mg/kg, time < 24 hrs, route ip. The following applies: in vivo.
The target of data set [4] is T1, Histone-lysine N-methyltransferase EHMT1 (Homo sapiens) (UniProt Q9H9B1).
T1 sequence (whole entry): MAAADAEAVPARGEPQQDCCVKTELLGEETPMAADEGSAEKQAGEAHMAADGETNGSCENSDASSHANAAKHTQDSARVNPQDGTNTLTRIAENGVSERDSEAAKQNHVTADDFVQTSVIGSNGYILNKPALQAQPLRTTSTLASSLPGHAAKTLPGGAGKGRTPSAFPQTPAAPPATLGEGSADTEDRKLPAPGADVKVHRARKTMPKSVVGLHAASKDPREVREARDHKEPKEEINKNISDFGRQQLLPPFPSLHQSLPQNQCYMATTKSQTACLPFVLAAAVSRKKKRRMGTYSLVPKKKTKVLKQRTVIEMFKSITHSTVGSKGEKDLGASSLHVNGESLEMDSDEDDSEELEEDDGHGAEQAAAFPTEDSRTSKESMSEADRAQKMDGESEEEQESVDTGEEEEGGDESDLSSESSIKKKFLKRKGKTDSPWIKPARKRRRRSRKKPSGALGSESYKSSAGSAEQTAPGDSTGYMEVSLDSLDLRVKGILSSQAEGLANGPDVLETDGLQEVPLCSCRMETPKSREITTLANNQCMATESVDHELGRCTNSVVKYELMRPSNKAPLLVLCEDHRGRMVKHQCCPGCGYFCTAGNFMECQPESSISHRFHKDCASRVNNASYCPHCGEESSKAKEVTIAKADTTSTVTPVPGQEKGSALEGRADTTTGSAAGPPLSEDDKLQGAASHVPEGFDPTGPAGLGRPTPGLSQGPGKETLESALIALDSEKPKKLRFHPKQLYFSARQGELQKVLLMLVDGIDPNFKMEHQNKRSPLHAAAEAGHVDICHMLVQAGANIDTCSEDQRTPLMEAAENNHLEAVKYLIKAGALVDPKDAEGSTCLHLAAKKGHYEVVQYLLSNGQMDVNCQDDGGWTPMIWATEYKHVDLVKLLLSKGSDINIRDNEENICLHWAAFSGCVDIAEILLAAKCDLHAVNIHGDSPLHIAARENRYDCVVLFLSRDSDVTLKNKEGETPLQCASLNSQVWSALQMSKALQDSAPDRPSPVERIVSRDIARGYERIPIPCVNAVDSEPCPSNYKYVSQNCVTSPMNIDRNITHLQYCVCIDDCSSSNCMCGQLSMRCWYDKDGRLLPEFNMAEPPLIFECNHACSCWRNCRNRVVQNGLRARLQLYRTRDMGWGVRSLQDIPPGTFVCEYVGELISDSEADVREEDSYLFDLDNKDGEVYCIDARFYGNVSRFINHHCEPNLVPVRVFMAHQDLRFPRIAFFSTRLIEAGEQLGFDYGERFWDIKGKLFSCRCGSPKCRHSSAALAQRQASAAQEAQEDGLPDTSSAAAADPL
As to the kind of experiment: Covalent inhibition of recombinant GLP (unknown origin) assessed as adduct formation intensity by mass spectrometric analysis. The following applies: time <= 16.0 hrs, TDE = time-dependent effect.

The test system of data set [5] is MDA-MB-231. As to the kind of experiment: Reduction in H3K9me2 level in human MDA-MB-231 cells at 10 uM incubated for 48 hrs followed replaced with fresh medium measured after 24 hrs by Western blot analysis. The class given is functional, cell-based. (Immunoblotting shows a protein as a band on a membrane.)
Data set [6] concerns PANC-1. As to the kind of experiment: In vivo antitumor activity against human PANC-1 cells xenografted in Balb/c mouse model assessed as reduction in H3K9me2 level in tumor at 2 mg/kg, ip treated for 22 days relative to control. The data set is classed as functional, organism-based. The following applies: time 22.0 day.
The subject of data set [7] is PANC-1. As to the kind of experiment: Antiproliferative activity against human PANC-1 cells assessed as cell viability measured after 24 hrs by CCK-8 assay. The following applies: PANC-1, 24 h. The class given is functional, cell-based. (Formazan colour is commonly taken as a measure of viable cells.)
The subject of data set [8] is MDA-MB-231. Briefly: Reduction in H3K9me2 level in human MDA-MB-231 cells at 10 uM by Western blot analysis. The class given is functional, cell-based. The following applies: time 24-96 hrs, TDE = time-dependent effect.
Data set [9] in a line: MRT in ICR mouse at 2 mg/kg, ip measured upto 24 hrs by LC-MS/MS analysis. The class given is ADME, organism-based. The following applies: in vivo.
The target in data set [10] is T2, Histone-arginine methyltransferase CARM1 (Homo sapiens, UniProt Q86X55).
T2 sequence (Q86X55 whole entry): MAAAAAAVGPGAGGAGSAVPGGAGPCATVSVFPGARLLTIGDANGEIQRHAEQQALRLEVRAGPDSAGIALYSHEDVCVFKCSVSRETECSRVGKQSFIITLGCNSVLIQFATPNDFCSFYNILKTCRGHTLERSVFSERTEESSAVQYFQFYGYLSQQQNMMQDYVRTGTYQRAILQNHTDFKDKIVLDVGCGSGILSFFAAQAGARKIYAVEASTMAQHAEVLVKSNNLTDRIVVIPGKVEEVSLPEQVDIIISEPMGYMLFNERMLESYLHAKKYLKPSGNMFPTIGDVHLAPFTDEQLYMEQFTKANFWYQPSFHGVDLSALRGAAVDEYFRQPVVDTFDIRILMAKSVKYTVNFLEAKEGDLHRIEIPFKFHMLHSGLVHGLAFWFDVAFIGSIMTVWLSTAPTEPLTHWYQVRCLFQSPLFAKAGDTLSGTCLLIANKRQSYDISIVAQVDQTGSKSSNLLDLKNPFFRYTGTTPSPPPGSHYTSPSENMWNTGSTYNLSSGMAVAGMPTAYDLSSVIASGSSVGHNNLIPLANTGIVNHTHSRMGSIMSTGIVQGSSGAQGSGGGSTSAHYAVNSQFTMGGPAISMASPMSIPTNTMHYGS
Briefly: Inhibition of PRMT4 (unknown origin).

The target in data set [11] is Histone-lysine N-methyltransferase 2A (Homo sapiens, UniProt Q03164). As to the kind of experiment: Inhibition of MLL1 (unknown origin).
Data set [12] deals with T1, Histone-lysine N-methyltransferase EHMT1 (Homo sapiens). Briefly: Covalent inhibition of recombinant GLP (unknown origin) assessed as adduct formation intensity by measuring mass after 12 hrs by mass spectrometric analysis.
A short description of data set [13]: Cmax in ICR mouse at 2 mg/kg, ip measured upto 24 hrs by LC-MS/MS analysis. The following applies: in vivo. More on the design: time < 24 hrs, dose 2 mg/kg, route ip. The class given is ADME, organism-based.
A short description of data set [14]: Metabolic stability in mouse liver microsomes assessed as half life at 0.1 uM measured upto 60 mins by LC-MS/MS analysis. The data set is classed as ADME, Microsome.
Data set [15] deals with Protein arginine N-methyltransferase 5 (Homo sapiens, UniProt O14744). Briefly: Inhibition of PRMT5 (unknown origin).
In data set [16] the test system is MDA-MB-231. Briefly: Antiproliferative activity against human MDA-MB-231 cells assessed as cell viability measured after 24 hrs by CCK-8 assay. The class given is functional, cell-based. The following applies: MDA-MB-231, 24 h.

Activity calls are given as the source filed them. Bounds are passed on as bounds.

Sequence of Histone-lysine N-methyltransferase 2A (Q03164 1-2718 limits assumed): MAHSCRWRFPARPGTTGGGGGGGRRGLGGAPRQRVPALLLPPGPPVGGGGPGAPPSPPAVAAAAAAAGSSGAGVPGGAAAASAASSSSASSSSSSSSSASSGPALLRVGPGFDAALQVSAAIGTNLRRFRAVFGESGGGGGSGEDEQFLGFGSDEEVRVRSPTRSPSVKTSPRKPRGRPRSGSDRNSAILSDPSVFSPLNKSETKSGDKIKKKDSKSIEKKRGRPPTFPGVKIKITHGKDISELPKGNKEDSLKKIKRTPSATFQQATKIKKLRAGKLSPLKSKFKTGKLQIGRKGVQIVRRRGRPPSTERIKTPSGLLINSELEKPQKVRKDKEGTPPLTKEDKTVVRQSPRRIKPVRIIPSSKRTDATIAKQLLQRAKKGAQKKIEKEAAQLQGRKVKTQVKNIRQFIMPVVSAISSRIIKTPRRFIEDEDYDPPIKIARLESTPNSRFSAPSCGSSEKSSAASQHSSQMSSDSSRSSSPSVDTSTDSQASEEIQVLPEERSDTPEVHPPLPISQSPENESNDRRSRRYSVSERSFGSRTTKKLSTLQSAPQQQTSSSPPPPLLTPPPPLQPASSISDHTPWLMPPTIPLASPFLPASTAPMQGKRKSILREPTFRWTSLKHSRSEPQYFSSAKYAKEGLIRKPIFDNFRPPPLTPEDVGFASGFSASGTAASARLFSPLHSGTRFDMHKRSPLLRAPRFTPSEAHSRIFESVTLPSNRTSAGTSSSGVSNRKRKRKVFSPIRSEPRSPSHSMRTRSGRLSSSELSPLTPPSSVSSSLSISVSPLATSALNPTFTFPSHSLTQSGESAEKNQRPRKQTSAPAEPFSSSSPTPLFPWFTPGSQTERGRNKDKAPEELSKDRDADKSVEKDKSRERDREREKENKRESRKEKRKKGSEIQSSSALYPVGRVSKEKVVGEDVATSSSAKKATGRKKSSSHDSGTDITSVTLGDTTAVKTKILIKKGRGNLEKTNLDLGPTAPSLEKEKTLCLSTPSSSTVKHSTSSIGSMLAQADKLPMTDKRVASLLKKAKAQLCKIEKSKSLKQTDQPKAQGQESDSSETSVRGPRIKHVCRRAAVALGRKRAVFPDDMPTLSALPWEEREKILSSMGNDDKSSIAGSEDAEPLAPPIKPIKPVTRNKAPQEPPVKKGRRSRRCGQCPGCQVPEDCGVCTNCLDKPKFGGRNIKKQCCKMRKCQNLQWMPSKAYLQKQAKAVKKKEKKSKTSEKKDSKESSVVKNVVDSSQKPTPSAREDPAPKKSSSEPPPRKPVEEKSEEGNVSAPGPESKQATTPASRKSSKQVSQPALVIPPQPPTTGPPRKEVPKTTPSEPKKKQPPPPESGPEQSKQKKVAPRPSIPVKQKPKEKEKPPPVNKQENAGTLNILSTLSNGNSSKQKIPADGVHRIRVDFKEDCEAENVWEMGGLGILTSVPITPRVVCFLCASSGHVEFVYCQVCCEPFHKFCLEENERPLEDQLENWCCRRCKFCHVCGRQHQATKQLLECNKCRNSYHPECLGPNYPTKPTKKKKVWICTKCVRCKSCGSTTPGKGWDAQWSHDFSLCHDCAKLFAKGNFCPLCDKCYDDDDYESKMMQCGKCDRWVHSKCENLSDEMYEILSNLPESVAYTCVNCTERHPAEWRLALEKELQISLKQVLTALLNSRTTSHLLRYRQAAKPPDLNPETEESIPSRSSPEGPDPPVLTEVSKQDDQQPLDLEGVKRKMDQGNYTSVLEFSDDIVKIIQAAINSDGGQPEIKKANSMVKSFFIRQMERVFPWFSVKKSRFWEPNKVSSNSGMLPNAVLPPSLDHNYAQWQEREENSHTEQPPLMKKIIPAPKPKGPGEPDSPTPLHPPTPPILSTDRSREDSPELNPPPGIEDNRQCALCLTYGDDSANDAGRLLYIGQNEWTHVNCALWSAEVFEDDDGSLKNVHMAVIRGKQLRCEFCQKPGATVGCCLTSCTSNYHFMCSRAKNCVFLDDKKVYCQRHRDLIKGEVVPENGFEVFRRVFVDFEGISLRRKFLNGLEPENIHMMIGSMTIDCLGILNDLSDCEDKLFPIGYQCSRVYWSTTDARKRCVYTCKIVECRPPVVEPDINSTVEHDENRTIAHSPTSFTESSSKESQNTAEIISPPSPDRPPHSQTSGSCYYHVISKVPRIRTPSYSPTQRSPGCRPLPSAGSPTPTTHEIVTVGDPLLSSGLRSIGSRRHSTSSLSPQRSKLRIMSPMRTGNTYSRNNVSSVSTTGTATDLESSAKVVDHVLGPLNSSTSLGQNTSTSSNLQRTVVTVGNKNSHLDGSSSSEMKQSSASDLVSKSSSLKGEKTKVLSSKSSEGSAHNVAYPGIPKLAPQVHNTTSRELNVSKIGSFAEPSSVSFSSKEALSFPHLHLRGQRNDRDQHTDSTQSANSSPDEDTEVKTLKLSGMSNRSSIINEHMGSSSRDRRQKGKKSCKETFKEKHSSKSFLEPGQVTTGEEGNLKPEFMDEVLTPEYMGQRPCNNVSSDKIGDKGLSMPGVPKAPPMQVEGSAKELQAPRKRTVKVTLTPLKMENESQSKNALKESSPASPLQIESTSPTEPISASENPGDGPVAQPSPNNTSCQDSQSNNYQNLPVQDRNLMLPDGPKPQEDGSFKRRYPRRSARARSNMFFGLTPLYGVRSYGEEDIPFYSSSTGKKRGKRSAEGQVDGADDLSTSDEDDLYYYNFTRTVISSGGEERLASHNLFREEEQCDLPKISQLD
Sequence of Histone-lysine N-methyltransferase 2A (Q03164 2719-3969 limits assumed): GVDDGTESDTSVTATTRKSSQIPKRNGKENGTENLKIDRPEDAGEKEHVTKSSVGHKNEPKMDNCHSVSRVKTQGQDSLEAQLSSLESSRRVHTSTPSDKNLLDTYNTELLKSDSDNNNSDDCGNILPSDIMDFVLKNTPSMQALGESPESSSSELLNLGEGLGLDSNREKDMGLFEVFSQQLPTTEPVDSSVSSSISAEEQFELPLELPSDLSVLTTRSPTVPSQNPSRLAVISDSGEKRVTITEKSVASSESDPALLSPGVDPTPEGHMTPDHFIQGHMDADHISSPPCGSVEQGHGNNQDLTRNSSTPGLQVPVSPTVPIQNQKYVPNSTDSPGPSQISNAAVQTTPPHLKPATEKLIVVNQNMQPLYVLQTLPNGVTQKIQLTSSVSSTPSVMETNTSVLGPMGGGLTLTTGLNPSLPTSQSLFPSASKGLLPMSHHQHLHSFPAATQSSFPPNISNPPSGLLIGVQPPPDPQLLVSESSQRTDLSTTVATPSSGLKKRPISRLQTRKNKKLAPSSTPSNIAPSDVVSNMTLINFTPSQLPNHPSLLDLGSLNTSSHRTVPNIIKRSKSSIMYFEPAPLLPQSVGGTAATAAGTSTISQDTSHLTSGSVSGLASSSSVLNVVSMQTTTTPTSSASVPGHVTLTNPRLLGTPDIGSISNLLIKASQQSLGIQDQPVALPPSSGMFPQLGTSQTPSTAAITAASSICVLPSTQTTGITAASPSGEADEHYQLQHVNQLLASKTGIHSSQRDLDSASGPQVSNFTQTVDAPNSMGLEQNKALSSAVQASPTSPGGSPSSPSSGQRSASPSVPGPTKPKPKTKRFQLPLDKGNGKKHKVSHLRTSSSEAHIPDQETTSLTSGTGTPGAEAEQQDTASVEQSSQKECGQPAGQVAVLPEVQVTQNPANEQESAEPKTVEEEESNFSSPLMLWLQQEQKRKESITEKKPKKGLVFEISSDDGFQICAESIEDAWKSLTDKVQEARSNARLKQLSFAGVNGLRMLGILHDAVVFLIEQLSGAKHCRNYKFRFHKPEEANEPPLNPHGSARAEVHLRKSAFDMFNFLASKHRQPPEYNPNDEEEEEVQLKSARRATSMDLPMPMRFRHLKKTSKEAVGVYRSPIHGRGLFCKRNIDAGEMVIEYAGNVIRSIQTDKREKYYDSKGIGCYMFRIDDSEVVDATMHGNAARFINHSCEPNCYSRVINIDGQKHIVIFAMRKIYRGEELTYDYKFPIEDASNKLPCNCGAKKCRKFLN
Sequence of Protein arginine N-methyltransferase 5 (O14744 whole entry): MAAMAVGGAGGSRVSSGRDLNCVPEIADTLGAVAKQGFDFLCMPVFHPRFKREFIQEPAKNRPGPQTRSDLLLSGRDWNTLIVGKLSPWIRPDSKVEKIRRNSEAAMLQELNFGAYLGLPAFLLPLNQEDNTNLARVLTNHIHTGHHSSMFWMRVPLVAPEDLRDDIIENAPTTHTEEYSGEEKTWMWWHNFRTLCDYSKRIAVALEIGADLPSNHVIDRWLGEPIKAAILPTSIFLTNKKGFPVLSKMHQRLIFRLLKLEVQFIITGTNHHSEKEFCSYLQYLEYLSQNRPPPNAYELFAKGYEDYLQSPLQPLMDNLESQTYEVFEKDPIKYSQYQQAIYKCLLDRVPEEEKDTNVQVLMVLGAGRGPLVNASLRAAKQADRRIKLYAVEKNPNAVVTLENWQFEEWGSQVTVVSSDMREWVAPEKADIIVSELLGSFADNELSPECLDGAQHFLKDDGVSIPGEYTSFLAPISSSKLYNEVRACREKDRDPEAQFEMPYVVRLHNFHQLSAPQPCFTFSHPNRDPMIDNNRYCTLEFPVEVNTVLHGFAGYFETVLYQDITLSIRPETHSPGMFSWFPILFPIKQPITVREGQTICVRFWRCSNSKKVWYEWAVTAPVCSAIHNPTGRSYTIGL

Turning to `C=CC(=O)N(C)c1nc(NC2CCN(C)CC2)c2cc(OC)c(OCCCN3CCCC3)cc2n1`, the inhibition in vivo at 2 mg/kg with PANC-1 [1] amounted to 52.2%. In addition, the inhibition result in the data set on MDA-MB-231 [2] is “inactive”. In [3], the area under the curve AUC(0-inf) was determined as 214 ng·h/mL. Moreover, the inhibition result (in [4]; in the data set on MDA-MB-231 [8]) was “Tde” in each case. Also, the inhibition entry in the data set with MDA-MB-231 [5] and in the data set on PANC-1 [6] was “Active” each time. Also, the half-maximal inhibitory concentration (IC50) in the data set on PANC-1 [7] is 2.68 µM; in data set [10], 6.68 µM; in data set [11] it was > 20 µM; in data set [15], > 20 µM; in the data set with MDA-MB-231 [16], 2.88 µM. The compound also showed a mean residence time MRT in [9] of 36.6 min. Besides, the Activity in data set [12] stood at 53800 Da. In [13], the peak level (Cmax) was 316 ng/mL. For the same compound, in data set [14], the half-life at 0.1 µM amounted to 71.2 min.

What is called AUC(0-inf) is the area under the concentration-time curve extrapolated to infinity. By IC50 is commonly meant the concentration that gives 50% inhibition. Broadly, the MRT is the average time that molecules of a dose stay in the body. As usually defined, the Cmax is the peak of the concentration-time curve. In general, half-life refers to the time needed for the level to fall by half in the phase considered.
